Ends that are not written are not given here.
Test system: HIV-1 Protease
Assay type: biochemical
Conditions: bei 50 µM, nur 1 Bestimmung; 5% DMSO

PQITLSDRLGGGGDRVSFNF-NH2 [HPQITLSDRLGGGGDRVSFNF-NH₂]
Inhibition der HIV-1 Protease: 36%⁺

From patent EP0680973A1, “Peptides, process to prepare them and their use” (priority 1994, dated 1995)
